Experimental data as given in patent US9102665B2, “Cysteinyl leukotriene antagonists” (Sun Pharma Advanced Research Company Ltd., priority 2011, dated 2015).

Target: T1, Leukotriene, Cysteinyl CysLT1 (Cavia porcellus, UniProt Q2NNR5)
T1 construct: from tissue; host or cells: guinea pig lung membrane
T1 sequence (Q2NNR5 1-340): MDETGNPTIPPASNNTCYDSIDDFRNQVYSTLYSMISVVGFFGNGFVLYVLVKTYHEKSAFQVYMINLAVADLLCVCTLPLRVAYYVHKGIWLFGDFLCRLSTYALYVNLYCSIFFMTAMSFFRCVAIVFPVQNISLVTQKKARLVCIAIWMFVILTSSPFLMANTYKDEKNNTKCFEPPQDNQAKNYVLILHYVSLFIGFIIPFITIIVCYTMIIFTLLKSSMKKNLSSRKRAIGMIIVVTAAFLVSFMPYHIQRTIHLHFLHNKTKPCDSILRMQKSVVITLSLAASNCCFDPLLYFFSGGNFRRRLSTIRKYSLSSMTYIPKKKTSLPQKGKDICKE
Assay: receptor radio-ligand-binding assay (Tritiated LTD4 as the ligand), Guinea pig lung membrane
Settings: 0.5 h, 0.2 nM 3H LTD4, Guinea pig lung membrane; for inhibition at 0.001 µM: 1 nM test compound, read-out: % Inhbition (in nM) 1; for inhibition at 0.003 µM: 3 nM test compound, read-out: % Inhbition (in nM) 3; for inhibition at 0.01 µM: 10 nM test compound, read-out: % Inhbition (in nM) 10
Experimental: The primary in-vitro biological screening for the compounds carried-out involving receptor radio-ligand-binding assay (Tritiated LTD4 as the ligand) by known methods described in literature [a). Mong et al. European Journal of Pharmacology (102); 1984 1-11b). Jones et al; Journal of Physiology & Pharmacology (73); 1994, 191-201 c). MDS Pharma Services: 250460 Leukotriene, Cysteinyl CysLT1]. Accordingly, Guinea pig lung membrane (100 ug) is incubated with 0.2 nM 3H LTD4 in presence of Reference Standard/Test item/Vehicle Control. Non Specific Binding is determined by incubating the membrane with 0.2 nM 3H LTD4 in presence of 1 uM of unlabeled LTD4. The samples are incubated at 26° C. for 30 minutes and are vacuum filtered on a membrane to separate the bound and free radioligand. The membrane is counted in a liquid scintillation counter to calculate the bound radioactivity. Specific Binding in Vehicle treated and Reference Standard/Test item treated set is compared to evaluate the % Inhibition values. Some of the compounds have shown >50% inhibition in the presence of ≦3 nano-molar concentration of the compounds of present invention as shown in the following table.

| inhibition at 0.001 µM | inhibition at 0.003 µM | inhibition at 0.01 µM | Structure (SMILES) |
| --- | --- | --- | --- |
| 46% | 56% | 71% | CS(=O)(=O)NC(CCc1ccccc1C(=O)O)c1cccc(/C=C/c2ccc3ccc(Cl)cc3n2)c1 (stereo not drawn) [Ia.11, 2-(3-{3-[(E)-2-(7-Chloro-quinolin-2-yl)-vinyl]phenyl}-3-methanesulfonylamino-propyl)-benzoic acid] |
| 5% | 35% | 56% | O=C(O)c1ccccc1CCC(NC(=O)C(F)(F)F)c1cccc(/C=C/c2ccc3ccc(Cl)cc3n2)c1 (stereo not drawn) [Ia.12, 2-[3-{3-[(E)-2-(7-Chloro-quinolin-2-yl)-vinyl]-phenyl}-3-(2,2,2-trifluoro-acetylamino)-propyl]-benzoic acid] |
| 0.3% | 51% | 69% | CCN(CC)C(=O)c1ccccc1CCC(NC(=O)c1ccccc1C(=O)O)c1cccc(/C=C/c2ccc3ccc(Cl)cc3n2)c1 (stereo not drawn) [Ia.38, N-[1-{3-[(E)-2-(7-Chloro-quinolin-2-yl)-vinyl]-phenyl}-3-(2-diethylcarbamoyl-phenyl)-propyl]-phthalamic acid] |
| 35% | 56% | 65% | CCN(CC)C(=O)c1ccccc1CCC(NC(=O)c1ccccc1C(=O)OC)c1cccc(/C=C/c2ccc3ccc(Cl)cc3n2)c1 (stereo not drawn) [Ia.48, N-[1-{3-[(E)-2-(7-Chloro-quinolin-2-yl)-vinyl]-phenyl}-3-(2-diethylcarbamoyl-phenyl)-propyl]-phthalamic acid methyl ester] |
| 50% | 60% | 74% | O=C(N[C@H](CCc1ccccc1C(=O)O)c1cccc(/C=C/c2ccc3ccc(Cl)cc3n2)c1)c1ccco1 [Ia.54, 2-{(R)-3-{3-[(E)-2-(7-Chloro-quinolin-2-yl)-vinyl]-phenyl}-3-[(furan-2-carbonyl)-amino]-propyl}-benzoic acid] |
| 34% | 56% | 72% | O=C(N[C@@H](CCc1ccccc1C(=O)O)c1cccc(/C=C/c2ccc3ccc(Cl)cc3n2)c1)c1cccs1 [Ia.69, 2-{(S)-3-{3-[(E)-2-(7-Chloro-quinolin-2-yl)-vinyl]-phenyl}-3-[(thiophene-2-carbonyl)-amino]-propyl}-benzoic acid] |
| 40% | 67% | 72% | O=C(O)c1ccccc1C(=O)NC(CCc1ccccc1C(=O)N1CCCC1)c1cccc(/C=C/c2ccc3ccc(Cl)cc3n2)c1 (stereo not drawn) [Ia.73, N-{1-{3-[(E)-2-(7-Chloro-quinolin-2-yl)-vinyl]-phenyl}-3-[2-(pyrrolidine-1-carbonyl)-phenyl]-propyl}-phthalamic acid] |
| 37% | 61% | 67% | CN(C(=O)c1ccco1)C(CCc1ccccc1C(=O)O)c1cccc(/C=C/c2ccc3ccc(Cl)cc3n2)c1 (stereo not drawn) [Ia.76, 2-{3-{3-[(E)-2-(7-Chloro-quinolin-2-yl)-vinyl]-phenyl}-3-[(furan-2-carbonyl)-methyl-amino]-propyl}-benzoic acid] |
| 43% | 64% | 65% | COC(=O)c1ccccc1CCC(NC(=O)C1=C(C(=O)O)CCC1)c1cccc(/C=C/c2ccc3ccc(Cl)cc3n2)c1 (stereo not drawn) [Ia.80, 2-(3-[(2-Carboxy-cyclopent-1-enecarbonyl)-amino]-3-{3-[(E)-2-(7-chloro-quinolin-2-yl)-vinyl]-phenyl}-propyl)-benzoic acid methyl ester] |

| Structure (SMILES) | inhibition at 0.001 µM | inhibition at 0.003 µM | inhibition at 0.01 µM |
| --- | --- | --- | --- |
| CC(=O)OC(CSc1ccccc1C(=O)O)c1cccc(/C=C/c2ccc3ccc(Cl)cc3n2)c1 (stereo not drawn) [Ia.118, 2-(2-Acetoxy-2-{3-[(E)-2-(7-chloro-quinolin-2-yl)-vinyl]-phenyl}-ethylsulfanyl)-benzoic acid] | 33% | 46% | 52% |
